Measurements published in ChEMBL document CHEMBL2346648, “A series of thiazole derivatives bearing thiazolidin-4-one as non-competitive ADAMTS-5 (aggrecanase-2) inhibitors” (Bioorg Med Chem Lett, 2013).
pIC50: −log10 of the molar value.

Columns and labels:
[1] = target: T1, A disintegrin and metalloproteinase with thrombospondin motifs 4 (Homo sapiens, UniProt O75173); assay: Inhibition of ADAMTS-4 (unknown origin)
T1 sequence (O75173 whole entry): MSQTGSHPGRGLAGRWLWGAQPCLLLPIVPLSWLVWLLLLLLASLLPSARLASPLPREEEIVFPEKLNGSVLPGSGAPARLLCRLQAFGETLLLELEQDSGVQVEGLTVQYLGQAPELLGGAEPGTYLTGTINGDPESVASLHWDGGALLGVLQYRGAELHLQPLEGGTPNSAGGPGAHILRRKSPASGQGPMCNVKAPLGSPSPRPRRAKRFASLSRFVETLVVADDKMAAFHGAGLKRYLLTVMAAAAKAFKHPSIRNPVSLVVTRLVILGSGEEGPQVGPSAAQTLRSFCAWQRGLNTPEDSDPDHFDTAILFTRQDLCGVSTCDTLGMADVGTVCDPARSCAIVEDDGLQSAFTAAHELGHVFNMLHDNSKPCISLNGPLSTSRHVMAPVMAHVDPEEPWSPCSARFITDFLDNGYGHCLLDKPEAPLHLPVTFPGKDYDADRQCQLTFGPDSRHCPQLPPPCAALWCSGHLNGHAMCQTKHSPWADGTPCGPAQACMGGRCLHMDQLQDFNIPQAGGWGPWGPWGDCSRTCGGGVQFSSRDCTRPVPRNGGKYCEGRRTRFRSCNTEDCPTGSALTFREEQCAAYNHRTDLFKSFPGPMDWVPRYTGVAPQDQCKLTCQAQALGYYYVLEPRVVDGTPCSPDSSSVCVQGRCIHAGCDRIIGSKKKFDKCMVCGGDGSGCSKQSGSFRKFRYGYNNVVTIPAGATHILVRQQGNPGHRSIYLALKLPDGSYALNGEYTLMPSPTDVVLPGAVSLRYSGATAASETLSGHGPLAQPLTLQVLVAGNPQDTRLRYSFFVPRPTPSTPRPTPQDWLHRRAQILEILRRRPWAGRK

[2] = target: T2, A disintegrin and metalloproteinase with thrombospondin motifs 4 (Bos taurus) (UniProt Q9TT93); details: 30 uM
T2 sequence (whole entry): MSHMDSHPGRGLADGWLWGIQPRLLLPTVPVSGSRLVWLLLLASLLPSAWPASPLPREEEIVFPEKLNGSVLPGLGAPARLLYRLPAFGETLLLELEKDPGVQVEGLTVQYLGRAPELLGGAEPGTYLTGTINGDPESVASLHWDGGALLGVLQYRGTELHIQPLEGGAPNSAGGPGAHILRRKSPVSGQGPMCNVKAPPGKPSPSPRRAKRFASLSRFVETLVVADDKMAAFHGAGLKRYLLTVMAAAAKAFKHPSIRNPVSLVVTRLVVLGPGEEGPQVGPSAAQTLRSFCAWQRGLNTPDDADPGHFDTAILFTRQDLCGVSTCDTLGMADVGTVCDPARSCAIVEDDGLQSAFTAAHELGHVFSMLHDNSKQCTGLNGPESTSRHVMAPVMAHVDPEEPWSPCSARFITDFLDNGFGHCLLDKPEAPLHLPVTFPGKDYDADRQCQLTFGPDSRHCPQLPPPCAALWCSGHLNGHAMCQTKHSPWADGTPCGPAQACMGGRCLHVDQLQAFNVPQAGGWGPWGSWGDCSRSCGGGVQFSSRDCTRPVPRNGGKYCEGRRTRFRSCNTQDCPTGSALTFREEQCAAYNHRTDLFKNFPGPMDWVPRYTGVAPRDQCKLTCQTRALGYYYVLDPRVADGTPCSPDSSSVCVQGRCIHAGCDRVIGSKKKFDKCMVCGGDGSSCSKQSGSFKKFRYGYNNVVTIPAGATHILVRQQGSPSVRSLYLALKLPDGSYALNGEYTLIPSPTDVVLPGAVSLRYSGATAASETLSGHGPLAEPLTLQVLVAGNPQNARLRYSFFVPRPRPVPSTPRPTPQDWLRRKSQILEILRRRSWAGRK
Description: Ex vivo inhibition of ADAMTS-4-mediated aggrecan degradation in IL-1-stimulated bovine cartilage explant at 30 uM

[3] = target: T3, A disintegrin and metalloproteinase with thrombospondin motifs 5 (Homo sapiens, UniProt Q9UNA0); assay: Inhibition of ADAMTS-5 (unknown origin)
T3 sequence (Q9UNA0 whole entry): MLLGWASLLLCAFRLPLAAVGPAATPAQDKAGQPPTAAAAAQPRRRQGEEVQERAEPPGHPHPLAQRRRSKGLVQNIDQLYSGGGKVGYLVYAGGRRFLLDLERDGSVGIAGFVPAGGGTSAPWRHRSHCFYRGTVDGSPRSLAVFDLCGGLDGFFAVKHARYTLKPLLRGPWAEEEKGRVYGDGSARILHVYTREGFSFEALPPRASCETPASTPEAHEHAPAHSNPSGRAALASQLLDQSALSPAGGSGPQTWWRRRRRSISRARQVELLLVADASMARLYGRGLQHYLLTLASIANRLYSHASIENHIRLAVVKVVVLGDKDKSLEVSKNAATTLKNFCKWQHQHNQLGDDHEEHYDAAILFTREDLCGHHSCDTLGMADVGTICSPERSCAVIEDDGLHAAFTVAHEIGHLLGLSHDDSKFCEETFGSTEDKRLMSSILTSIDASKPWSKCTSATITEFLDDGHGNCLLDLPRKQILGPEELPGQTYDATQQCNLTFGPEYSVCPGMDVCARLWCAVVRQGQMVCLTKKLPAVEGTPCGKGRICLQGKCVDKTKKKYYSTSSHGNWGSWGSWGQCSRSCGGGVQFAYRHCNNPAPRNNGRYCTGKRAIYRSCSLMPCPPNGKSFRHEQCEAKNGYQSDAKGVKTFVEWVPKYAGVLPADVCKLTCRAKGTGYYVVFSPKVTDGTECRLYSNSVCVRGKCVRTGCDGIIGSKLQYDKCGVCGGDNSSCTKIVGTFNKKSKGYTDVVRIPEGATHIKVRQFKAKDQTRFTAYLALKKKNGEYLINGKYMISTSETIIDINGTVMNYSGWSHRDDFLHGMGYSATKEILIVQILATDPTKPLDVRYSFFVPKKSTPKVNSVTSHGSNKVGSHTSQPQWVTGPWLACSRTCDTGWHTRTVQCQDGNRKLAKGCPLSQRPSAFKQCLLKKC

[4] = target: T4, A disintegrin and metalloproteinase with thrombospondin motifs 5 (Bos taurus) (UniProt Q9TT92); assay: Ex vivo inhibition of ADAMTS-5-mediated aggrecan degradation in IL-1-stimulated bovine cartilage explant at 30 uM
T4 sequence (whole entry): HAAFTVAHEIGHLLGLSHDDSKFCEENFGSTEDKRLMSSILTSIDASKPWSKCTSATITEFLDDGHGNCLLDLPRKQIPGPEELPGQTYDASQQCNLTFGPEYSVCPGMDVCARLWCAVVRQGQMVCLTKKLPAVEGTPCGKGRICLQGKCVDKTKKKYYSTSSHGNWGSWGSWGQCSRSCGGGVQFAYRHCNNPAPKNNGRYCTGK

O=C(NO)C1(S(=O)(=O)c2ccc(Oc3ccc(Cl)cc3)cc2)CCN(Cc2ccccc2)CC1
pIC50 [1]: 6.00 | inhibition [2]: 91% | pIC50 [3]: 6.38 | inhibition [4]: 91%
